Source: patent US10077295B2, “Glycoproteins having lipid mobilizing properties and therapeutic uses thereof” (Aston University, priority 2010, dated 2018)

Assays:
[1] = system: adipocytes, BAT; assay: Expression of ZAG, HSL, UCP in adipose tissue/adipocytes of mice (5 day ZAG study); type: in vivo, mouse; settings: ERK inhibitor added with ZAG
Experimental: Western Blot Analysis. Freshly excised gastrocnemius muscles were washed in PBS and lysed in PHOSPHOSAFE™ Extraction Reagent for 5 min at room temperature followed by sonication at 4° C. The lysate was cleared by centrifugation at 18,000 g for 5 min at 4° C. and samples of cytosolic protein (5 μg) were resolved on 12% sodium dodecyl sulfate-polyacrylamide gel electrophoresis at 180V for approximately 1 h. This was followed by transference to 0.45 μm nitrocellulose membranes, which were then blocked with 5% Marvel in Tris-buffered saline, pH 7.5, at 4° C. overnight. Both primary and secondary antibodies were used at a dilution of 1:1000 except anti-myosin (1:250). Incubation was for 1 h at room temperature, and development was by ECL. Blots were scanned by a densitometer to quantify differences.
A 5 day study was performed where ZAG was administered at 35 μg per day i.v. on a daily basis for 5 days. At the end of the experiment tissues were removed and blotted, or functional assays were carried out with isolated adipocytes. […] When ep adipocytes were prepared and maintained in tissue culture (RPMI 1640+10% FCS) ZAG expression was maintained for a further 3 days, even though no ZAG was added to the culture medium (FIG. 6B). […] In fact, as discussed above, too much ZAG is more likely to lead to resistance rather than an increased response.

[2] = molecular target: T1, β3-AR (Homo sapiens, UniProt P13945); assay: Cyclic AMP production in CHO-K1 cells transfected with β3-AR; type: cell-based; set-up: host or cells: CHO-K1; settings: CHO β3-AR
Experimental: (§1) Binding Studies and Cyclic AMP Determination. CHO-K1 cells transfected with the human β1- and β2-AR obtained from University of Nottingham, UK, while CHOK1 cells transfected with the β3-AR were obtained from Astra Zeneca, Macclesfield, Cheshire, UK. Gene expression was under the control of hygromycin, together with a β-gal reporter construct, selected for resistance to G418. They were maintained in DMEM supplemented with 2 mM glutamine, hygromycin B ([…]), G418 ([…]), and 10% FCS, under an atmosphere of 10% CO2 in air. To determine the effect of agonists on cyclic AMP production, cells were grown in 24-well plates containing 1 ml of nutrient medium.

[3] = molecular target: T2, human β2-AR (Homo sapiens, UniProt P07550); assay: Cyclic AMP production in CHO-K1 cells transfected with β2-AR; type: cell-based; settings: CHO β2-AR, SR59230A 10 μM
T2 construct: host or cells: CHO-K1
Experimental: as §1

[4] = system: murine myotubes; assay: Murine myotubes subjected to high glucose: protein degradation, protein synthesis, ROS, pPKR; type: cell-based, mouse; settings: 10 or 25 mM glucose; ZAG 25 μg/ml
Experimental: This utilizes murine myotubes subjected to high concentrations of glucose (10 or 25 mM). […] However the SR compound (i.e., SR59230A) can also act as a β-agonist, which it seemed to do in these experiments.
It has been shown that formation of reactive oxygen species (ROS) is important in protein degradation induced by high glucose load. […] High glucose also induces activation (phosphorylation) of PKR (FIG. 22A) and the subsequent phosphorylation of eIF2α (FIG. 22B) as is seen in skeletal muscle of ob/ob mice, which was also attenuated by ZAG.

[5] = system: rat epididymal adipocytes; assay: Lipolytic activity in rat adipocytes; type: cell-based; settings: rat epididymal adipocytes
Experimental: Lipolytic Activity in Rat Adipocytes—White adipocytes were prepared from finely minced epididymal adipose tissue of male Wistar rats (400 g) using collagenase digestion, as described (Beck S A, et al. Production of lipolytic and proteolytic factors by a murine tumor-producing cachexia in the host. Cancer Res 47:5919-5923, 1987). Lipolytic activity was determined by incubating 10^5-2×10^5 adipocytes for 2 h in 1 ml Krebs-Ringer bicarbonate buffer, pH 7.2, and the extent of lipolysis was determined by measuring the glycerol released (Wieland O. Glycerol UV method. Methods of Enzymatic Analysis, edited by Bergmeyer H U. Academic Press, London, pp 1404-1409, 1974). Spontaneous glycerol release was measured by incubating adipocytes alone. Lipolytic activity was expressed as μmol glycerol released/10^5 adipocytes/2 h.

[6] = system: ob/ob mice; assay: Oral (p.o.) administration of rhZAG to ob/ob mice; type: in vivo, mouse; settings: 50 ug ZAG p.o. daily with propranolol
Experimental: 50 ug per day of rhZAG was administered p.o. to Aston ob/ob mice. Oral dosing was achieved by assuming 5 mL/day consumption of water, and adding ZAG to achieve 50 ug per day dose based on that assumption. No attempt was made to correct for variations of consumption on a given day.
Experiment One (8 Day Oral ZAG Study): 50 ug of ZAG was administered p.o. daily in drinking water.
Experiment Two (8 Day Oral ZAG Plus Propranolol Study): 50 ug of ZAG administered p.o. daily, with and without propranolol. Propanolol blocks all of the effects of ZAG including decrease in body weight and blood glucose in the tolerance test, also blocking the rise in body temperature and the rise in plasma mouse ZAG, confirming that this occurs through a beta adrenergic receptor. […] It appears to do this by preventing the rise in mouse ZAG in the serum after oral administration of the rhZAG.
Experiment Three (Oral Study): ZAG administered p.o. daily over an extended time frame, with a recovery group split from the treated group beginning at 30 days (data not shown).

[7] = system: ob/ob mice; assay: ob/ob mice treated with ZAG i.v. with or without propanolol; type: in vivo, mouse; settings: propanolol 40 mg kg−1 po daily
Experimental: Animals. […] Male mice (about 20 weeks of age) were grouped into three per cage and kept in an air conditioned room at 22±2° C., with ad libitum feeding of a rat and mouse breeding diet (Special Diet Services, Witham, UK) and tap water. Mice were administered ZAG (50 μg, i.v. in 100 μl PBS) or PBS daily with or without propanolol (40 mgkg^−1, po, daily) and body weight and food and water intake were determined, as well as urinary glucose excretion and body temperature, determined by the use of a rectal thermometer (RS Components, Northants, UK). A glucose tolerance test was performed on day 3. […] Blood samples were removed from the tail vein at 15, 30, 60 and 120 min after glucose administration and used for the measurements of glucose and insulin. At the end of the experiment the animals were terminated by cervical dislocation, tissues removed and rapidly frozen in liquid nitrogen, and maintained at −80° C.
To determine whether ZAG can increase insulin signalling the effect on Glut4 expression was determined.

[8] = molecular target: T1, β3-AR; settings: high affinity binding site; cited from earlier work

T1 sequence (P13945 whole entry): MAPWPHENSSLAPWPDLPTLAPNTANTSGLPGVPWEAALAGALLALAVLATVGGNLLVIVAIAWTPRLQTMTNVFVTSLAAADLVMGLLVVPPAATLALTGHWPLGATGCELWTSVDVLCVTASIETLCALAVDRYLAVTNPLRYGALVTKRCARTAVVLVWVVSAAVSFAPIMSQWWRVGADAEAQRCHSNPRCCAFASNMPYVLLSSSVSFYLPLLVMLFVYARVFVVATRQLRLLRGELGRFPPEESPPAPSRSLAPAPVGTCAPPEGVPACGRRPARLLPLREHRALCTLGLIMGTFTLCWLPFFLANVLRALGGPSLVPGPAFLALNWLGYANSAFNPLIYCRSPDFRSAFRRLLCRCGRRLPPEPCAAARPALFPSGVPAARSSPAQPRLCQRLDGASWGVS
T2 sequence (P07550 whole entry): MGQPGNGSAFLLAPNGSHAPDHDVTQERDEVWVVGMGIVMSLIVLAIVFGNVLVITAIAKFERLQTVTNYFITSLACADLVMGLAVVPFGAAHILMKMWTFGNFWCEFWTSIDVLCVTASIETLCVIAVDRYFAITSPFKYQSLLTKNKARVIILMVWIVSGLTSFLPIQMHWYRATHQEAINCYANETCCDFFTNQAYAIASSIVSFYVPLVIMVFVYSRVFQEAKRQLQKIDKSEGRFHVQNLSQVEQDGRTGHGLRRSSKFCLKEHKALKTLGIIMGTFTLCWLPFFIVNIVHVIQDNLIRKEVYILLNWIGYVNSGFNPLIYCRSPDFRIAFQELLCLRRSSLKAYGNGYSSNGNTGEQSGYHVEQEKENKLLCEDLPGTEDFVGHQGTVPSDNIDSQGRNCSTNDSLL

In the case of `COc1cccc(-c2cc(=O)c3ccccc3o2)c1N` [PD98059, reference compound], the “effect on ZAG-induced expression of phospho HSL” value [1] is reported as “completely attenuated”.

In the case of `CC(C)NCC(O)c1ccc(O)c(O)c1` (centres unmarked) [isoprenaline, reference compound], the “cyclic AMP level” value ([2]; 10 μM) is reported as “significant increases in cyclic AMP level”.

With `CCc1ccccc1OC[C@@H](O)CN[C@H]1CCCc2ccccc21` [SR59230A, reference compound] the “effect on isoprenaline-induced increase in cyclic AMP” value ([2]; SR59230A 10 μM) was “attenuated”, the “effect on isoprenaline-induced increase in cyclic AMP” value [3] was “attenuated” and the “effect on protein degradation stimulated by high glucose” value [4] was “attenuated”. For the same molecule, the “effect on the lipolytic effect of ZAG” value [5] was “completely attenuated”.

In the case of `CC(C)NCC(O)COc1cccc2ccccc12` (centres unmarked) [propanolol, propranolol], the “effect on weight loss by oral ZAG” value [6] is reported as “totally attenuates weight loss”, the “effect on ZAG-induced changes in oral glucose tolerance test” value [7] is reported as “blocked the reduction in peak plasma glucose levels” and the “effect on increased body temperature produced by ZAG” value [7] is reported as “completely attenuated”. The “effect on decrease in body weight produced by ZAG” value ([7]; ZAG 50 μg iv daily) was “completely attenuated”.

B1: LMF: lipid mobilizing factor of cancer cachexia, shown immunologically identical to ZAG (protein, UniProt P25311 21-298, looked up)
Zinc-alpha-2-glycoprotein: QENQDGRYSLTYIYTGLSKHVEDVPAFQALGSLNDLQFFRYNSKDRKSQPMGLWRQVEGMEDWKQDSQLQKAREDIFMETLKDIVEYYNDSNGSHVLQGRFGCEIENNRSSGAFWKYYYDGKDYIEFNKEIPAWVPFDPAAQITKQKWEAEPVYVQRAKAYLEEECPATLRKYLKYSKNILDRQDPPSVVVTSHQAPGEKKKLKCLAYDFYPGKIDVHWTRAGEVQEPELRGDVLHNGNGTYQSWVVVAVPPQDTAPYSCHVQHSSLAQPLVVPWEAS
In the case of B1, the Kd [8] is given as 78 ± 4.5 nM.
